Laboratory results as given in publication PMC6152724, “Secondary Sulfonamides as Effective Lactoperoxidase Inhibitors” (Molecules : A Journal of Synthetic Chemistry and Natural …, 2017).

Target: T1, LPO purified from bovine milk (Bos taurus, UniProt P80025)
T1 construct: from tissue; host or cells: fresh bovine milk
Assay: LPO inhibition assay (ABTS oxidation by H2O2, absorbance at 412 nm; Lineweaver–Burk plots)
Format: biochemical
Conditions: for Ki / IC50: LPO purified from bovine milk; for Ki: Lineweaver–Burk plots, three inhibitor and five ABTS concentrations, Means ± SD; for IC50: from activity (%)-[inhibitor] regression graphs, ABTS substrate; for Inhibition Type: with respect to ABTS substrate, from Lineweaver–Burk plots
Procedure: LPO activities were determined by the procedure of Shindler and Bardsley with slight modification. This method is based on the oxidation of chromogenic substrate 2,2′-azino-bis(3-ethylbenzothiazoline-6-sulfonic acid) (ABTS) by hydrogen peroxide (H2O2), which results in a product which had absorbance at 412 nm.
The effects of secondary sulfonamide derivatives (4a–8h) on LPO purified from fresh bovine milk by affinity chromatography technique were previously determined. In our study, LPO activity was measured in the presence of different concentrations of secondary sulfanilamide derivatives (4a–8h). A control sample without secondary sulfonamide was taken as 100%. An activity (%)-[Secondary sulfonamide] plot was drawn. For the determination of the inhibition constant (Ki) values, three different secondary sulfonamide derivative (4a–8h) concentrations were used. Additionally, ABTS was used as a substrate at five different concentrations. Lineweaver–Burk plots (1/V-1/[ABTS]) were obtained for secondary sulfonamide; the Ki and the inhibition type were calculated from these plots. The data obtained were analysed by t-test and the results are given as Means ± SD.

| Structure (SMILES) | Ki [nM] | IC50 [nM] | Inhibition Type |
| --- | --- | --- | --- |
| CC(=O)Oc1cc(C(=O)Nc2ccc(S(=O)(=O)Nc3onc(C)c3C)cc2)cc(OC(C)=O)c1OC(C)=O [6e, N-(sulfisoxazole)-3,4,5-triacetoxybenzamide] | 1070 ± 20 | 2030 | Competitive |
| CC(=O)Oc1cc(C(=O)Nc2ccc(S(=O)(=O)Nc3nnc(C)s3)cc2)cc(OC(C)=O)c1OC(C)=O [6f, N-(sulfamethizole)-3,4,5-triacetoxybenzamide] | 8550 ± 1450 | 6660 | Non-competitive |
| CC(=O)Oc1cc(C(=O)Nc2ccc(S(=O)(=O)Nc3nccc(C)n3)cc2)cc(OC(C)=O)c1OC(C)=O [6g, N-(sulfamerazine)-3,4,5-triacetoxybenzamide] | 1490 ± 280 | 1280 | Non-competitive |
| CC(=O)Oc1cc(C(=O)Nc2ccc(S(N)(=O)=O)cc2)cc(OC(C)=O)c1OC(C)=O [6h, N-(sulfanilamide)-3,4,5-triacetoxybenzamide] | 2290 ± 980 | 3050 | Non-competitive |
| O=C(Nc1ccc(S(=O)(=O)Nc2nccs2)cc1)c1ccc(O)cc1 [7a, N-(sulfathiazole)-p-hydroxybenzamide] | 6850 ± 1810 | 15100 | Non-competitive |
| O=C(Nc1ccc(S(=O)(=O)Nc2ncccn2)cc1)c1ccc(O)cc1 [7b, N-(sulfadiazine)-p-hydroxybenzamide] | 44 ± 22 | 40 | Noncompetitive |
| Cc1cc(C)nc(NS(=O)(=O)c2ccc(NC(=O)c3ccc(O)cc3)cc2)n1 [7c, N-(sulfamethazine)-p-hydroxybenzamide] | 484 ± 146 | 426 | Non-competitive |
| O=C(Nc1ccc(S(=O)(=O)Nc2ccccn2)cc1)c1ccc(O)cc1 [7d, N-(sulfapyridine)-p-hydroxybenzamide] | 1410 ± 130 | 2960 | Competitive |
| Cc1noc(NS(=O)(=O)c2ccc(NC(=O)c3ccc(O)cc3)cc2)c1C [7e, N-(sulfisoxazole)-p-hydroxybenzamide] | 15100 ± 3900 | 10800 | Non-competitive |
| Cc1nnc(NS(=O)(=O)c2ccc(NC(=O)c3ccc(O)cc3)cc2)s1 [7f, N-(sulfamethizole)-p-hydroxybenzamide] | 387 ± 150 | 799 | Competitive |
| Cc1ccnc(NS(=O)(=O)c2ccc(NC(=O)c3ccc(O)cc3)cc2)n1 [7g, N-(sulfamerazine)-p-hydroxybenzamide] | 3940 ± 1100 | 1760 | Non-competitive |
| NS(=O)(=O)c1ccc(NC(=O)c2ccc(O)cc2)cc1 [7h, N-(sulfanilamide)-p-hydroxybenzamide] | 217 ± 99 | 285 | Non-competitive |
| O=C(Nc1ccc(S(=O)(=O)Nc2nccs2)cc1)c1cc(O)c(O)c(O)c1 [8a, N-(sulfathiazole)-3,4,5-trihydroxybenzamide] | 25 ± 10 | 14 | Competitive |
| O=C(Nc1ccc(S(=O)(=O)Nc2ncccn2)cc1)c1cc(O)c(O)c(O)c1 [8b, N-(sulfadiazine)-3,4,5-trihydroxybenzamide] | 1290 ± 465 | 715 | Non-competitive |
| Cc1cc(C)nc(NS(=O)(=O)c2ccc(NC(=O)c3cc(O)c(O)c(O)c3)cc2)n1 [8c, N-(sulfamethazine)-3,4,5-trihydroxybenzamide] | 2170 ± 880 | 2530 | Competitive |
| O=C(Nc1ccc(S(=O)(=O)Nc2ccccn2)cc1)c1cc(O)c(O)c(O)c1 [8d, N-(sulfapyridine)-3,4,5-trihydroxybenzamide] | 5850 ± 1280 | 10200 | Competitive |
| Cc1noc(NS(=O)(=O)c2ccc(NC(=O)c3cc(O)c(O)c(O)c3)cc2)c1C [8e, N-(sulfisoxazole)-3,4,5-trihydroxybenzamide] | 1440 ± 520 | 1990 | Competitive |
| Cc1nnc(NS(=O)(=O)c2ccc(NC(=O)c3cc(O)c(O)c(O)c3)cc2)s1 [8f, N-(sulfamethizole)-3,4,5-trihydroxybenzamide] | 293000 ± 62000 | 173000 | Non-competitive |
| Cc1ccnc(NS(=O)(=O)c2ccc(NC(=O)c3cc(O)c(O)c(O)c3)cc2)n1 [8g, N-(sulfamerazine)-3,4,5-trihydroxybenzamide] | 3870 ± 430 | 1480 | Non-competitive |
| NS(=O)(=O)c1ccc(NC(=O)c2cc(O)c(O)c(O)c2)cc1 [8h, N-(sulfanilamide)-3,4,5-trihydroxybenzamide] | 3100 ± 578 | 1780 | Non-competitive |
